Test results reported in US20140249295A1, “LIGHT-INDUCIBLE SYSTEM FOR REGULATING PROTEIN STABILITY” (The Board of Trustees Of The Leland Stanford Junior …, priority 2013, published 2014).
Where a SMILES comes first, the peptide text is derived from it. The star is where a group is joined. Cbz = O=C(OCc1ccccc1)*

Columns and labels:
[1] = system: 3T3 cells; settings: cited from earlier work
[2] = system: NIH3T3 cells; experiment: Flow cytometry / immunoblot of NIH3T3 cells stably expressing YFP-LOV2 domain fusions, dark vs blue light; assay type: cell-based; settings: 10 μM MG132, blue light 2 hours, FACS analysis
Protocol: Genes encoding the proteins tested as fusions to the BLID domain were cloned by standard techniques in the retroviral pBMN vector encoding an iHcRed-t or iBlasticidin. The ΦNX ecotropic packaging cell line was cultured in DMEM supplemented with 10% heat-inactivated fetal bovine serum, 2 mM glutamine, 100 U/mL penicillin and 100 μg/mL streptomycin. The NIH3T3 cell line was cultured in DMEM supplemented with 10% heat-inactivated donor bovine serum, 2 mM glutamine, 100 U/mL penicillin and 100 μg/mL streptomycin. The ΦNX cells were transfected using standard Lipofectamine 2000 protocols. Viral supernatants were harvested 48 h posttransfection and filtered through a 0.45 μm nylon syringe filter. NIH3T3 cells were incubated with the retroviral supernatants supplemented with 4 μg/mL polybrene for 4-6 h at 37° C. Cells were cultured in growth media for 24 to 36 h to allow for viral integration, then assayed as described.
Twenty-four hours prior to analysis, transduced NIH3T3 cells were plated at 1×10^5 cells per well of a 12-well plate and treated with vehicle or blue light for indicated time points prior to analysis. […] Samples were analyzed at the Stanford Shared FACS Facility with 10,000 events represented.
For immunoblotting, NIH3T3 cells were washed in PBS and lysed on ice in MIPP buffer containing protease inhibitors. Protein concentration was measured by Bradford assay. […]

| Compound | fluorescence of YFP with C-terminal degron [1] | effect on light-dependent decrease in fluorescence of YFP-LOV24 [2] |
| --- | --- | --- |
| RRRG | no fluorescence is observed |  |
| CC(C)C[C@@H](C=O)NC(=O)[C@H](CC(C)C)NC(=O)[C@H](CC(C)C)NC(=O)OCc1ccccc1 [MG132] (Cbz-Leu-Leu-Leu-aldehyde) |  | prevents the light-dependent decrease in fluorescence |
